Measured values from patent US20260130933A1, “PHARMACEUTICAL COMPOSITION FOR PREVENTION OR TREATMENT OF NEPHROPATHY AND/OR DIABETES MELLITUS, COMPRISING ENAVOGLIFLOZIN” (DAEWOONG PHARMACEUTICAL CO., LTD., priority 2022, published 2026).

Assay: Example 2: phase 3 trial, enavogliflozin 0.3 mg vs dapagliflozin 10 mg once a day for 24 weeks added to metformin in patients with type 2 diabetes (same efficacy, exploratory and safety endpoints)
Format: in vivo, human
Details: for fasting Total cholesterol, Mean (SD) / fasting Total cholesterol, Median / Change from baseline in Total cholesterol, ANCOVA LS mean (SE) / Change from baseline in Total cholesterol, Mean (SD) / Change from baseline in total cholesterol, Median: modified per-protocol set 1; for fasting Total cholesterol, Mean (SD) / fasting Total cholesterol, Median / Change from baseline in FPG, ANCOVA LS mean (SE) / Change from baseline in FPG, Mean (SD) / Change from baseline in FPG, Median / Change from baseline in HbA1c, ANCOVA LS mean (SE) / Change from baseline in HbA1c, Mean (SD) / Change from baseline in HbA1c, Median / Change from baseline in body weight, ANCOVA LS mean (SE) / Change from baseline in body weight, Mean (SD) / Change from baseline in body weight, Median / Change from baseline in fasting c-peptide, ANCOVA LS mean (SE) / Change from baseline in fasting c-peptide, Mean (SD) / Change from baseline in fasting c-peptide, Median / FPG, Mean (SD) / FPG, Median / HbA1c, Mean (SD) / HbA1c, Median / Subjects achieving HbA1c target of <6.5%, (%) / Subjects achieving therapeutic glycemic response, (%) / body weight, Mean (SD) / body weight, Median / fasting c-peptide, Mean (SD) / fasting c-peptide, Median / Change from baseline in Total cholesterol, ANCOVA LS mean (SE) / Change from baseline in Total cholesterol, Mean (SD) / Change from baseline in total cholesterol, Median: enavogliflozin 0.3 mg, dapagliflozin 10 mg; for Change from baseline in FPG, ANCOVA LS mean (SE) / Change from baseline in FPG, Mean (SD) / Change from baseline in FPG, Median / Change from baseline in HbA1c, ANCOVA LS mean (SE) / Change from baseline in HbA1c, Mean (SD) / Change from baseline in HbA1c, Median / Change from baseline in body weight, ANCOVA LS mean (SE) / Change from baseline in body weight, Mean (SD) / Change from baseline in body weight, Median / Change from baseline in fasting c-peptide, ANCOVA LS mean (SE) / Change from baseline in fasting c-peptide, Mean (SD) / Change from baseline in fasting c-peptide, Median / FPG, Mean (SD) / FPG, Median / HbA1c, Mean (SD) / HbA1c, Median / Subjects achieving HbA1c target of <6.5%, (%) / Subjects achieving therapeutic glycemic response, (%) / body weight, Mean (SD) / body weight, Median / fasting c-peptide, Mean (SD) / fasting c-peptide, Median: per-protocol set
Method: Subjects who met the inclusion/exclusion criteria were administered a placebo of the clinical trial drug under single-blind (subject blinding) conditions during a 2-week run-in period while continuing to receive metformin. […] The randomized subjects were administered two tablets of the clinical trial drug for each administration group once a day, and then visited the institution at weeks 6, 12, 18, and 24 during the 24-week administration period to conduct efficacy and safety evaluations.
• 1. Change in HbA1c at week 24 after administration of clinical trial drug compared to Visit 2 (randomization)
• 1. Change in HbA1c at each time point of weeks 6, 12, and 18 after administration of clinical trial drug compared to Visit 2 (randomization) • 2. Change in FPG at each time point of weeks 6, 12, 18, and 24 after administration of clinical trial drug compared to Visit 2 (randomization) • 3. Proportion of subjects achieving HbA1c<7% at each time point of weeks 6, 12, 18, and 24 after administration of clinical trial drug • 4. Proportion of subjects achieving HbA1c<6.5% at each time point of weeks 6, 12, 18, and 24 after administration of clinical trial drug • 5. Proportion of subjects achieving therapeutic response (HbA1c change (HbA1c at Visit 2-HbA1c at each evaluation time point)>0.5% or HbA1c<7% at each evaluation time point compared to Visit 2 (randomization)) at each time point of weeks 6, 12, 18 and 24 after administration of clinical trial drug
• 1. Change in fasting c-peptide at each time point of weeks 6, 12, 18, and 24 after administration of clinical trial drug compared to Visit 2 (randomization) • 2. Change in body weight at each time point of weeks 6, 12, 18, and 24 after administration of clinical trial drug compared to Visit 2 (randomization) • 3. Change in fasting lipid concentration (total cholesterol, LDL-C, HDL-C, and triglycerides) at each time point of weeks 6, 12, 18, and 24 after administration of clinical trial drug compared to Visit 2 (randomization) • 4. Changes in systolic or diastolic blood pressure at each time point of weeks 6, 12, 18, and 24 after administration of clinical trial drug compared to Visit 2 (randomization) • 5. Changes in β-cell function and insulin resistance measured by HOMA-β and HOMA-IR at each time point of weeks 6, 12, 18, and 24 after administration of clinical trial drug compared to Visit 2 (randomization) • 6. Changes in renal function-related indicators (UACR, UGCR) measured by UACR at each time point of weeks 6, 12, 18, and 24 after administration of clinical trial drug compared to Visit 2 (randomization) • 7. Changes in obesity-related indicators (adiponectin, leptin) at each time point of weeks 6, 12, 18, and 24 after administration of clinical trial drug compared to Visit 2 (randomization)

[1] = week 24, listed as dapagliflozin

Structure (SMILES): CCOc1ccc(Cc2cc([C@@H]3O[C@H](CO)[C@@H](O)[C@H](O)[C@H]3O)ccc2Cl)cc1 [Dapagliflozin, reference compound]
- fasting Total cholesterol, Mean (SD) (week 12): 143.19(28.59) mg/dL
- fasting Total cholesterol, Median (week 12): 138.00 mg/dL
- Change from baseline in FPG, ANCOVA LS mean (SE) (week 12): -30.11 mg/dL
- Change from baseline in FPG, Mean (SD) (week 12): -31.89 mg/dL
- Change from baseline in FPG, Median (week 12): -23.50 mg/dL
- Change from baseline in HbA1c, ANCOVA LS mean (SE) (week 12): −0.79 % p
- Change from baseline in HbA1c, Mean (SD) (week 12): −0.74 % p
- Change from baseline in HbA1c, Median (week 12): −0.66 % p
- Change from baseline in body weight, ANCOVA LS mean (SE) (week 12): −2.63(0.23) kg
- Change from baseline in body weight, Mean (SD) (week 12): −2.61(1.66) kg
- Change from baseline in body weight, Median (week 12): -2.55 kg
- Change from baseline in fasting c-peptide, ANCOVA LS mean (SE) (week 12): −0.09(0.02) ng/mL
- Change from baseline in fasting c-peptide, Mean (SD) (week 12): −0.08(0.18) ng/mL
- Change from baseline in fasting c-peptide, Median (week 12): -0.10 ng/mL
- FPG, Mean (SD) (week 12): 117.78 mg/dL
- FPG, Median (week 12): 116.50 mg/dL
- HbA1c, Mean (SD) (week 12): 6.94%
- HbA1c, Median (week 12): 6.83%
- Subjects achieving HbA1c target of <6.5%, (%) (week 12): (26.14) %
- Subjects achieving therapeutic glycemic response, (%) (week 12): (79.55) %
- body weight, Mean (SD) (week 12): 68.19(11.65) kg
- body weight, Median (week 12): 66.90 kg
- fasting c-peptide, Mean (SD) (week 12): 0.66(0.23) ng/mL
- fasting c-peptide, Median (week 12): 0.65 ng/mL
- FPG change from baseline, LS mean (SE) (week 18): −31.13(1.63) mg/dL
- HOMA-IR change from baseline, LS mean (SE) (week 18): −1.47(0.12)
- HOMA-β change from baseline, LS mean (SE) (week 18): 13.49(3.08)
- HbA1c change from baseline, LS mean (SE) (week 18): −0.70(0.06) % p
- LDL-C change from baseline, LS mean (SE) (week 18): 2.58(1.89) mg/dL
- Subjects achieving HbA1c target of <7% (week 18): (57.47) %
- Subjects achieving HbA1c<6.5% (week 18): 25.29%
- Subjects achieving therapeutic response (HbA1c change >0.5% or HbA1c<7%) (week 18): 73.56%
- UACR change from baseline, LS mean (SE) (week 18): −12.95(5.11) g/kg
- diastolic blood pressure change from baseline, LS mean (SE) (week 18): −4.10(0.81) mmHg
- fasting c-peptide change from baseline, LS mean (SE) (week 18): −0.06(0.19) ng/ml
- leptin change from baseline, LS mean (SE) (week 18): −1.23(0.53) ng/mL
- Subjects achieving HbA1c target of <7% (week 18, listed as dapagliflozin): 57.47%
- Change from baseline in Total cholesterol, ANCOVA LS mean (SE) (week 18): 9.57(2.20) mg/dL
- Change from baseline in Total cholesterol, Mean (SD) (week 18): 10.18(22.74) mg/dL
- Change from baseline in total cholesterol, Median (week 18): 9.00 mg/dL
- fasting Total cholesterol, Mean (SD) (week 18): 148.48(30.10) mg/dL
- fasting Total cholesterol, Median (week 18): 151.50 mg/dL
- Change from baseline in FPG, ANCOVA LS mean (SE) (week 18): -31.13 mg/dL
- Change from baseline in FPG, Mean (SD) (week 18): -32.55 mg/dL
- Change from baseline in FPG, Median (week 18): -26.00 mg/dL
- Change from baseline in HbA1c, ANCOVA LS mean (SE) (week 18): −0.70 % p
- Change from baseline in HbA1c, Mean (SD) (week 18): −0.66 % p
- Change from baseline in HbA1c, Median (week 18): −0.61 % p
- Change from baseline in body weight, ANCOVA LS mean (SE) (week 18): −3.16(0.26) kg
- Change from baseline in body weight, Mean (SD) (week 18): −3.19(1.93) kg
- Change from baseline in body weight, Median (week 18): -3.00 kg
- Change from baseline in fasting c-peptide, ANCOVA LS mean (SE) (week 18): −0.06(0.02) ng/mL
- Change from baseline in fasting c-peptide, Mean (SD) (week 18): −0.06(0.19) ng/mL
- Change from baseline in fasting c-peptide, Median (week 18): -0.03 ng/mL
- FPG, Mean (SD) (week 18): 116.53 mg/dL
- FPG, Median (week 18): 115.00 mg/dL
- HbA1c, Mean (SD) (week 18): 7.02%
- HbA1c, Median (week 18): 6.90%
- Subjects achieving HbA1c target of <6.5%, (%) (week 18): (25.29) %
- Subjects achieving therapeutic glycemic response, (%) (week 18): (73.56) %
- body weight, Mean (SD) (week 18): 67.54(11.96) kg
- body weight, Median (week 18): 67.00 kg
- fasting c-peptide, Mean (SD) (week 18): 0.69(0.24) ng/mL
- fasting c-peptide, Median (week 18): 0.66 ng/mL
- FPG change from baseline, LS mean (SE) (week 24): −29.14(1.82) mg/dL
- HOMA-IR change from baseline, LS mean (SE) (week 24): −1.31(0.14)
- HOMA-β change from baseline, LS mean (SE) (week 24): 11.93(3.25)
- HbA1c change from baseline, LS mean (SE) (week 24): −0.75 % p
- HbA1c change from baseline, Mean (SD) (week 24): −0.71 % p
- HbA1c, Mean (week 24): 6.97%
- LDL-C change from baseline, LS mean (SE) (week 24): 0.93(1.98) mg/dL
- Subjects achieving HbA1c target of <7% (week 24): (62.22) %
- Subjects achieving HbA1c<6.5% (week 24): 27.78%
- Subjects achieving therapeutic response (HbA1c change >0.5% or HbA1c<7%) (week 24): 75.56%
- UACR change from baseline, LS mean (SE) (week 24): −17.37(3.48) g/kg
- UGCR change from baseline, LS mean (SE) (week 24): 44.94(2.18) mg/mg
- diastolic blood pressure change from baseline, LS mean (SE) (week 24): −4.26(0.67) mmHg
- fasting c-peptide change from baseline, LS mean (SE) (week 24): −0.04(0.26) ng/ml
- leptin change from baseline, LS mean (SE) (week 24): −1.28(0.53) ng/mL
- HbA1c change from baseline, LS mean (SE) [1]: −0.75(0.06) % p
- HbA1c change from baseline, Mean (SD) [1]: −0.71(0.76) % p
- Subjects achieving HbA1c target of <7% [1]: 62.22%
- Change from baseline in Total cholesterol, ANCOVA LS mean (SE) (week 24): 6.74(2.30) mg/dL
- Change from baseline in Total cholesterol, Mean (SD) (week 24): 9.15(22.59) mg/dL
- Change from baseline in total cholesterol, Median (week 24): 10.00 mg/dL
- fasting Total cholesterol, Mean (SD) (week 24): 147.02(27.55) mg/dL
- fasting Total cholesterol, Median (week 24): 145.00 mg/dL
- Change from baseline in FPG, ANCOVA LS mean (SE) (week 24): -29.14 mg/dL
- Change from baseline in FPG, Mean (SD) (week 24): -31.42 mg/dL
- Change from baseline in FPG, Median (week 24): -24.00 mg/dL
- Change from baseline in body weight, ANCOVA LS mean (SE) (week 24): −3.58(0.34) kg
- Change from baseline in body weight, Mean (SD) (week 24): −3.60(2.14) kg
- Change from baseline in body weight, Median (week 24): -3.40 kg
- Change from baseline in fasting c-peptide, ANCOVA LS mean (SE) (week 24): −0.04(0.02) ng/mL
- Change from baseline in fasting c-peptide, Mean (SD) (week 24): −0.04(0.26) ng/mL
- Change from baseline in fasting c-peptide, Median (week 24): -0.07 ng/mL
- FPG, Mean (SD) (week 24): 117.91 mg/dL
- FPG, Median (week 24): 116.50 mg/dL
- Subjects achieving HbA1c target of <6.5%, (%) (week 24): (27.78) %
- Subjects achieving therapeutic glycemic response, (%) (week 24): (75.56) %
- body weight, Mean (SD) (week 24): 66.92(11.89) kg
- body weight, Median (week 24): 66.05 kg
- fasting c-peptide, Mean (SD) (week 24): 0.70(0.30) ng/mL
- fasting c-peptide, Median (week 24): 0.66 ng/mL
